# Source: EP0413544A2, “Purine derivatives, process for their preparation, pharmaceutical compositions and intermediates” (Beecham Group p.l.c., priority 1989, dated 1991)
# Like-named read-outs stand apart in the source and are kept apart here.
# Assay: Blood concentration of E1 after oral dosing of the compounds to mice (HPLC)
# Type: in vivo
# Details: fasted female Balb/c mice, pooled blood of 3 mice
# Method: Compounds were administered as single doses of 0.2mmole/kg in 0.1ml of 1% carboxymethyl cellulose by oral gavage to female Balb/c mice weighing 20g. Food was withheld from the mice for 18 hours prior to the start of the experiment. Blood was collected by cardiac puncture using heparinised syringes 15, 60 and 180 mins after dosing. Equal volumes (0.2ml) from 3 mice were pooled at each time point and 0.6ml of ice-cold ethanol was added. Following chilling at -20°C and centrifugation, 0.5ml of supernatant was dried under reduced pressure. The sample was then reconstituted with 0.5ml of 0.4M NH₄OAc (pH 6.0) and analysed by HPLC.
smiles,measurement,setting,value
"Nc1nc(O)c2ncn(OCCCO)c2n1 [Example E1, 9-(3-hydroxyprop-1-oxy)guanine]",concentration,"Expt. 1, 15 min after single oral gavage dose of 0.2mmole/kg in 1% carboxymethyl cellulose, read-out: 9-(3-Hydroxypropoxy)guanine (E1) conc. (µM) in blood at time (min) after dosing: 15",5.2 µM
same,concentration,"Expt. 1, 60 min after single oral gavage dose of 0.2mmole/kg in 1% carboxymethyl cellulose, read-out: 9-(3-Hydroxypropoxy)guanine (E1) conc. (µM) in blood at time (min) after dosing: 60",2 µM
same,concentration,"Expt. 2, 15 min after single oral gavage dose of 0.2mmole/kg in 1% carboxymethyl cellulose, read-out: 9-(3-Hydroxypropoxy)guanine (E1) conc. (µM) in blood at time (min) after dosing: 15",11 µM
same,concentration at 1 h,"mouse, 200 umol/kg, Expt. 2, 60 min after single oral gavage dose of 0.2mmole/kg in 1% carboxymethyl cellulose, read-out: 9-(3-Hydroxypropoxy)guanine (E1) conc. (µM) in blood at time (min) after dosing: 60",3.3 µM
